Measurements from patent US20150011394A1 (priority 2012, published 2015).
Like-named read-outs stand apart in the source and are kept apart here.

Legend:
Burkholderia glumae [1] = details: rice, 150 g ai/ha, 1 spray, 29 days after the 1st spray
Burkholderia glumae [2] = type: in vivo
[3] = rice at harvest, 150 g ai/ha, 2 sprays

Row | Compound | % efficacy (Abbott), Burkholderia glumae incidence on panicles (Burkholderia glumae [1]) [%] | Yield (% of untreated) (Burkholderia glumae [2]; [3]) [%] | Yield T/ha (Burkholderia glumae [2]; [3]) [T/ha] | % efficacy (Abbott), Burkholderia glumae incidence on panicles (Burkholderia glumae [2]; rice, 150 g ai/ha, 2 sprays, 44 days after the 2nd spray) [%] | final yield increase (Burkholderia glumae [2]; rice, harvest trial, Isotianil treated plots)
1 | CCC1(C(=O)N[C@H](C)c2ccc(Cl)cc2)C(C)C1(Cl)Cl (some centres unmarked) [CARPROPAMID] | 36 | 108 | 9.06 | 43 | 
2 | N#Cc1ccccc1NC(=O)c1snc(Cl)c1Cl [Isotianil, isotianil] |  |  |  |  | about 20%
